This is an account of results in PubChem BioAssay (NCI).

As a reminder, the TGI is the concentration giving total growth inhibition. A high value points to lower sensitivity of the cells. In general, GI50 refers to the concentration that inhibits growth by half.

Test systems include HCC-2998 colon; OVCAR-5 ovarian; UACC-62 melanoma; RXF 393 renal; EKVX NSCLC; SK-OV-3 ovarian; IGROV1 ovarian; DLD-1 colon; NCI-H522 lung; NCI/ADR-RES ovarian.
Test in all cases: DTP human tumour cell line panel, 48 h

Several values for one entry are separate records, joined by “and”; a condition that tells them apart may be missing. Equal values may be shown once.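 Cells were grown in 96-well plates and exposed to each compound for 48 hours at five concentrations; endpoints were interpolated linearly between bracketing concentrations, or set to the highest concentration if not reached. Abbreviation: GI50, concentration required for 50% inhibition of growth. TGI denotes the concentration required for complete inhibition of growth.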

Consider `C=C1C(=O)OC2C1CC1OC2C(C)CCC/C(C)=C\CCC1(C)O` (stereo not drawn), for which the TGI is 63.5 µM with HCC-2998 colon; 124 µM with OVCAR-5 ovarian; 26.4 µM in the assay on UACC-62 melanoma; 17.9 µM in the assay with RXF 393 renal; 79.4 µM in the assay on EKVX NSCLC; 119 µM in the assay with SK-OV-3 ovarian. Besides, the TGI came to 49.5 µM in the assay on IGROV1 ovarian, 64.8 µM in the assay with DLD-1 colon, 26.2 µM with NCI-H522 lung and 55.2 µM in the assay with NCI/ADR-RES ovarian.

For `Cc1ccc(NC(=O)NC23CC4CC(CC(F)(C4)C2)C3)cc1`, the total growth inhibition concentration (TGI) in the assay with HCC-2998 colon, in the assay on OVCAR-5 ovarian, with UACC-62 melanoma, in the assay on RXF 393 renal, in the assay on EKVX NSCLC and in the assay on SK-OV-3 ovarian was more than 100 µM each time. Moreover, the TGI in the assay on IGROV1 ovarian, in the assay with DLD-1 colon and in the assay with NCI-H522 lung was more than 100 µM in each case.

With `CC1=NN(C(=O)Cc2ccccc2)C(=O)/C1=C\c1cccc(O)c1`, the TGI in the assay on HCC-2998 colon, in the assay with OVCAR-5 ovarian, in the assay on EKVX NSCLC, in the assay on DLD-1 colon and in the assay with NCI-H522 lung was more than 100 µM each time.

Consider `CCC[CH2][Ge]([CH2]CCC)([CH2]CCC)[O]C(=O)CCl`, for which the GI50 in the assay with HCC-2998 colon was 1.32 µM; in the assay with OVCAR-5 ovarian, 12.3 µM; in the assay on UACC-62 melanoma, 1.07 µM; in the assay on RXF 393 renal, 0.612 µM; in the assay with EKVX NSCLC it was 1.18 µM; with SK-OV-3 ovarian, 5.2 µM. In addition, the GI50 was 3.27 µM with IGROV1 ovarian, 0.122 µM with DLD-1 colon and 0.214 µM in the assay with NCI-H522 lung. Also, the total growth inhibition concentration (TGI) is 7.63 µM in the assay on HCC-2998 colon; 26.2 µM in the assay on OVCAR-5 ovarian; 8.67 µM with UACC-62 melanoma; 3.56 µM in the assay on RXF 393 renal; 16.2 µM in the assay with EKVX NSCLC; 20.6 µM in the assay with SK-OV-3 ovarian. Besides, the TGI in the assay with IGROV1 ovarian stood at 18.4 µM; with DLD-1 colon, 15.7 µM.

With `C#Cc1ccccc1C(=O)OC`, the total growth inhibition concentration (TGI) with HCC-2998 colon, in the assay with OVCAR-5 ovarian, in the assay on UACC-62 melanoma, in the assay on RXF 393 renal, in the assay with EKVX NSCLC and in the assay with SK-OV-3 ovarian was more than 100 µM each time. The TGI in the assay on IGROV1 ovarian, with DLD-1 colon and in the assay on NCI-H522 lung was more than 100 µM in each case.

As for `O.O=[Se](=O)(O)O.[NH-]C1CCCCC1[NH-].[Pt+2]` (stereo not drawn), the GI50 was more than 46.1 µM with HCC-2998 colon; 26.7 µM in the assay on OVCAR-5 ovarian; 4.25 µM with UACC-62 melanoma; 4.63 µM in the assay with RXF 393 renal; 36.1 µM in the assay on EKVX NSCLC; 64.8 µM in the assay with SK-OV-3 ovarian. Also, the GI50 was 7.98 µM in the assay on IGROV1 ovarian, 19 µM in the assay with DLD-1 colon, 13.7 µM with NCI-H522 lung and 11.3 µM with NCI/ADR-RES ovarian. Also, the TGI was more than 100 µM in the assay on HCC-2998 colon; more than 100 µM with OVCAR-5 ovarian; 26.4 µM in the assay with UACC-62 melanoma; 30.5 µM in the assay with RXF 393 renal; more than 100 µM in the assay with EKVX NSCLC; more than 100 µM with SK-OV-3 ovarian. Besides, the TGI in the assay with IGROV1 ovarian is more than 100 µM; in the assay on DLD-1 colon, more than 100 µM; with NCI-H522 lung, more than 59.4 µM; in the assay on NCI/ADR-RES ovarian it was more than 100 µM.

For the compound `O=C(c1ccccc1)c1ccc2c(c1)N=C(c1ccc(Cl)c(Cl)c1)CC(c1ccc3ccccc3c1)N2` (stereo not drawn), the total growth inhibition concentration (TGI) in the assay on HCC-2998 colon, in the assay on OVCAR-5 ovarian, in the assay with UACC-62 melanoma, with RXF 393 renal, with EKVX NSCLC and in the assay with SK-OV-3 ovarian was more than 100 µM each time. The TGI in the assay with IGROV1 ovarian, in the assay on DLD-1 colon and in the assay on NCI-H522 lung was more than 100 µM each time.

Regarding `COc1cccc2c1C(=O)c1c(O)c3c(c(O)c1C2=O)C[C@](O)(C(=O)CO)CC3OC1CC(N)C(OC2CCCCO2)C(C)O1` (stereo partly drawn), the total growth inhibition concentration (TGI) in the assay on HCC-2998 colon worked out at 3.25 µM; in the assay with OVCAR-5 ovarian, 2.17 µM; in the assay with UACC-62 melanoma, 1.11 µM; in the assay with RXF 393 renal, 1.87 µM; with EKVX NSCLC, 3.43 µM; in the assay with SK-OV-3 ovarian, 8.28 µM. In addition, the TGI was found to be 11.4 µM in the assay with IGROV1 ovarian, 12.5 µM in the assay on DLD-1 colon, 2.62 µM in the assay with NCI-H522 lung and 41.8 µM in the assay with NCI/ADR-RES ovarian.

For the compound `Nc1ncnc2c(C3OC(CO)C(O)C3O)c[nH]c12` (stereo not drawn), the TGI in the assay on HCC-2998 colon was 0.247 µM and 0.343 µM; with OVCAR-5 ovarian, 0.657 µM and 0.675 µM; in the assay with UACC-62 melanoma, 0.0496 µM and 0.0377 µM; in the assay on RXF 393 renal, 0.126 µM and 0.0746 µM; in the assay with EKVX NSCLC, 0.415 µM and 0.274 µM; in the assay with IGROV1 ovarian, 0.0637 µM and 0.0661 µM. The TGI with DLD-1 colon was 0.0413 µM; in the assay with NCI-H522 lung, 0.0601 µM and 0.0389 µM. In addition, the GI50 with OVCAR-5 ovarian was less than 0.0119 µM; with UACC-62 melanoma, 0.0101 µM; with EKVX NSCLC it was less than 0.0171 µM.

With `COc1ccc(/C(Cl)=C(\C=O)c2ccc(Cl)cc2)cc1`, the TGI was more than 100 µM with HCC-2998 colon; more than 100 µM in the assay on OVCAR-5 ovarian; 32.8 µM with UACC-62 melanoma; 57.3 µM in the assay with RXF 393 renal; more than 100 µM in the assay on EKVX NSCLC; more than 100 µM in the assay with SK-OV-3 ovarian. For the same compound, the TGI with IGROV1 ovarian is 42.1 µM; in the assay with DLD-1 colon, more than 100 µM; in the assay with NCI-H522 lung, 5.89 µM.

Regarding `CN(c1ccccc1)c1c(-c2ccccc2)c(=O)oc2c1ccc1occc12`, the TGI in the assay with HCC-2998 colon, with UACC-62 melanoma, in the assay on RXF 393 renal, in the assay on EKVX NSCLC, in the assay on SK-OV-3 ovarian and in the assay on IGROV1 ovarian was more than 100 µM each time. Moreover, the total growth inhibition concentration (TGI) with DLD-1 colon, in the assay on NCI-H522 lung and in the assay on NCI/ADR-RES ovarian was more than 100 µM throughout.
